According to PubChem BioAssay (NCI):
“And” between values parts separate entries of the source, which are not always exact repeats. Equal values may be shown once.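 Following 48 hours of exposure in 96-well plates, responses at five concentrations were used to interpolate endpoints linearly. Here, GI50 denotes the concentration required for 50% inhibition of growth. The concentration for full growth arrest is given as TGI.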

Key:
Experiment in all cases: NCI tumour cell line growth inhibition, 48 h
A549 NSCLC = tested on: A549 NSCLC
IGROV1 ovarian = tested on: IGROV1 ovarian
HOP-62 NSCLC = tested on: HOP-62 NSCLC
CCRF-CEM leukemia = tested on: CCRF-CEM leukemia
OVCAR-4 ovarian = tested on: OVCAR-4 ovarian
MDA-MB-231 breast = tested on: MDA-MB-231 breast
UACC-257 melanoma = tested on: UACC-257 melanoma
MALME-3M melanoma = tested on: MALME-3M melanoma
M14 melanoma = tested on: M14 melanoma
CAKI-1 renal = tested on: CAKI-1 renal

| Structure (SMILES) | GI50 (A549 NSCLC) | TGI (A549 NSCLC) | GI50 (IGROV1 ovarian) | TGI (IGROV1 ovarian) | GI50 (HOP-62 NSCLC) | TGI (HOP-62 NSCLC) | GI50 (CCRF-CEM leukemia) [µM] | TGI (CCRF-CEM leukemia) [µM] | GI50 (OVCAR-4 ovarian) | TGI (OVCAR-4 ovarian) | GI50 (MDA-MB-231 breast) | TGI (MDA-MB-231 breast) | GI50 (UACC-257 melanoma) | TGI (UACC-257 melanoma) | GI50 (MALME-3M melanoma) | TGI (MALME-3M melanoma) | GI50 (M14 melanoma) | TGI (M14 melanoma) | GI50 (CAKI-1 renal) | TGI (CAKI-1 renal) |
| --- | --- | --- | --- | --- | --- | --- | --- | --- | --- | --- | --- | --- | --- | --- | --- | --- | --- | --- | --- | --- |
| CC(CCC/C=C/CCCN(C)C(=N)N)CC(C)C1OC(=O)C(C)C(O)/C=C/C(C)C(O)C(C)C(O)C(C)C(O)CCCC(O)CC2(O)OC(CC(OC(=O)CC(=O)O)CC(O)CC(O)C(C)C(O)/C=C/C=C/C1C)CC(O)C2O (centres undefined) | 2.45 µM and 4.42 µg/mL | 5.63 µM and 16.8 µg/mL | 2.51 µM and 3.12 µg/mL | 5.01 µM and 12.4 µg/mL | 4.29 µM and 10.5 µg/mL | 17.1 µM and 21.6 µg/mL | 2.7 | 11 | 2.65 µM and 7.59 µg/mL | 6.66 µM and 18.4 µg/mL | 5.59 µM and 8.55 µg/mL | 19 µM and 19.9 µg/mL | 2.16 µM and 1.98 µg/mL | 4.29 µM and 6.29 µg/mL | 2.37 µM and 2.57 µg/mL | 5 µM and 11.7 µg/mL | 2.51 µM and 9.44 µg/mL | 6.32 µM and 23.9 µg/mL | 2.01 µM and 7.96 µg/mL | 5.24 µM and 17.7 µg/mL |
| COc1ccc(/C=C2\CC(C)CC3C2=NN(C(C)=O)C3c2ccc(OC)c(OC)c2)cc1OC (centres undefined) | 18.7 µM | 77.8 µM | 20.2 µM | 50.6 µM | 17.1 µM | 37.2 µM | 20.8 | 68.8 | 19.7 µM | 84.3 µM | 24.5 µM | > 100 µM | 18.1 µM | 33.9 µM | 20.1 µM | 36.3 µM | 15.1 µM | 28.7 µM | 53.3 µM | > 100 µM |
| Nc1cc2[nH]c(=O)c3cc(Cl)ccc3c2cc1Cl |  | 44.7 µM |  | 23.5 µM |  | 63.1 µM |  | > 100 |  | > 100 µM |  | 68.6 µM |  | 53.4 µM |  | 44.6 µM |  | > 100 µM |  | 40.8 µM |
| Cc1nc2cc(NC(=O)CN3CCN(CCN4C(=O)c5cccc6cccc(c56)C4=O)CC3)ccc2s1 | 4.14 µM | 19.2 µM | 6.05 µM | > 100 µM | 3.83 µM | 15.1 µM | 2.94 | 95.9 | 5.33 µM | > 100 µM | 11.7 µM | > 100 µM | 5.83 µM | > 100 µM | 4.99 µM | > 100 µM | 8.76 µM | 23 µM | 4.32 µM | > 100 µM |
| C/C(=C1/N=C(c2ccccc2)OC1=O)c1cccs1 |  | > 100 µM |  | > 100 µM |  | > 100 µM |  | > 100 |  | > 100 µM |  | > 100 µM |  | > 100 µM |  | > 100 µM |  | > 100 µM |  | > 100 µM |
| COc1ccc(/C(C)=C(\c2ccc(Cl)cc2)c2ccc(OCCN3CCCCC3)cc2)cc1F | 4.43 µM | > 16.7 µM | 3.16 µM | 9.37 µM | 3.34 µM | 6.58 µM | 3.98 | 16.1 | 2.99 µM | 8.99 µM | 3.04 µM | 5.71 µM | 3.1 µM | 7.04 µM | 2.18 µM | 4.46 µM | 2.61 µM | 6.17 µM | 3.14 µM | 6.48 µM |
| Cn1c([N+](=O)[O-])cnc1/C=C1\Oc2ccc(Cl)cc2C1=O | 1.95 µM | 5.88 µM | 1.22 µM | 8.29 µM | 1.6 µM | 4.78 µM | 0.199 | 0.823 | 1.7 µM | 5.71 µM | 0.783 µM | 4.64 µM | 1.95 µM | 5.2 µM | 1.42 µM | 4.78 µM | 0.636 µM | 4.26 µM | 0.257 µM | 0.754 µM |
| COc1cc(C2C3=C(COC3=O)N(CCO)c3cc4c(cc32)CCC4)cc(OC)c1OC (centres undefined) | 0.13 µM | > 32.5 µM | 0.0732 µM | 0.232 µM | 0.121 µM | > 32.5 µM | 0.13 | > 32.5 | 0.14 µM | > 20.9 µM | 0.137 µM | > 32.5 µM |  | > 32.5 µM | 0.598 µM | > 32.5 µM | 0.0672 µM | 0.199 µM | 0.484 µM | > 32.5 µM |
| COC(=O)[C@@H](C)C[C@H](Cc1ccccc1)NC(=O)c1cccc([C@@H](C[C@H](C(C)C)N(C)C(=O)[C@@H](NC(=O)[C@H]2CCCCN2C)C(C)C)OC(C)=O)n1 | 0.00591 µM | > 16.7 µM | < 0.00167 µM | > 16.7 µM | 0.00367 µM | > 16.7 µM | 0.00203 | > 16.7 | 0.00477 µM | > 16.7 µM | 0.00236 µM | 3.21 µM | 0.0118 µM | > 16.7 µM | < 0.00167 µM | > 16.7 µM | < 0.00167 µM | 0.224 µM | 0.00173 µM | > 16.7 µM |
| O=C(CN1C(=O)c2ccccc2C1=O)NC1(C(=O)O)CCCC1 |  | > 100 µM |  | > 100 µM |  | > 100 µM |  | > 100 |  | > 100 µM |  | > 100 µM |  | > 100 µM |  | > 100 µM |  | > 100 µM |  | > 100 µM |
| COc1cc2c(cc1Nc1nc(Nc3ccsc3C(N)=O)c3cc[nH]c3n1)N(C(=O)CN(C)C)CCC2 | 0.636 µM | 3.92 µM | 1.79 µM | 8.36 µM | 0.917 µM | 6.84 µM | 0.162 | 9.66 | 2.98 µM | 9.03 µM | 1.01 µM | 4.63 µM | 0.0558 µM | 3.67 µM | 2.58 µM | 6.24 µM | 0.592 µM | 3.28 µM | 3.64 µM | 10.2 µM |
| CN(C)c1ccc(/C=C/C(=O)c2ccc(Nc3nc(Nc4ccc(F)cc4)nc(Nc4ccc(Cl)cc4)n3)cc2)cc1 | 5.03 µM | 35.1 µM | 3.02 µM | 22.1 µM | 9.42 µM | 28.3 µM | 2.57 | 9.44 | 10.7 µM | > 100 µM | 9.56 µM | 73 µM | 11 µM | 54.7 µM | 10.7 µM | 33.8 µM | 4.29 µM | 19.1 µM | 14.6 µM | > 100 µM |
| COc1c(C)cnc(Cn2cnc3c(Cl)nc(N)nc32)c1C | 0.179 µM | > 100 µM | 0.455 µM | > 100 µM | 0.405 µM | > 100 µM | 0.097 | > 100 | 7.17 µM | > 100 µM | 0.559 µM | > 72.9 µM | 0.297 µM | 9.57 µM | 0.38 µM | 58.3 µM | 0.478 µM | > 100 µM | 0.397 µM | > 100 µM |
| CC[N+]1(C)CCC(O)(/C=C/c2ccccc2)C(C(=O)/C=C/c2ccccc2)C1 (centres undefined) |  | 45.7 µM |  | 37.9 µM |  | 35.5 µM |  | 10.8 |  | 43.7 µM |  | 31 µM |  | 24.8 µM |  | 26.9 µM |  | 25.8 µM |  | 3.42 µM |
| CCN(CC)CCC(CNc1c2ccc(Cl)cc2nc2ccc(OC)cc12)c1ccccc1 (centres undefined) | 1.51 µM | 3.49 µM | 1.21 µM | 5.11 µM | 1.16 µM | 3.11 µM | 1.1 | 5.17 | 1.64 µM | 4.26 µM | 1.01 µM | 2.73 µM | 2.01 µM | 3.63 µM | 1.87 µM | 3.56 µM | 1.78 µM | 3.44 µM | 1.3 µM | 3.62 µM |
| O=C(NC(c1ccccc1)C(O)C(=O)OCc1ccc2c(c1)C(=O)c1ccccc1C2=O)c1ccccc1 (centres undefined) |  | 54 µM |  | 48.5 µM |  | 9.82 µM |  | > 100 |  | 4.99 µM |  | 30.6 µM |  | > 72 µM |  | 37.9 µM |  | > 80.5 µM |  | 20.1 µM |
| CCOC(=O)C(Cc1ccc(N(CCCl)CCCl)cc1)NC(=O)C(CC(C)C)NC(C)=O (centres undefined) | 1.73 µM | 25.6 µM | 1.52 µM | 4.72 µM | 1.32 µM | 3.8 µM | 0.232 | 3.31 | 1.33 µM | 3.97 µM | 2 µM | 4.94 µM | 1.69 µM | 5.66 µM | 0.873 µM | 2.74 µM | 0.568 µM | 2.19 µM | 0.32 µM | 2.32 µM |
| C#Cc1cccc(NC(=O)Nc2cccc(NC(=O)CCl)c2)c1 | > 82.5 µM | > 82.5 µM | 11.6 µM | 26 µM | 63.6 µM | > 82.5 µM | 10.9 | 68.6 | 12 µM | 29.5 µM | 22.9 µM | 65.2 µM | > 82.5 µM | > 82.5 µM | 20.7 µM | > 82.5 µM | 23.6 µM | > 82.5 µM | > 82.5 µM | > 82.5 µM |
| Oc1c(Br)cc(Br)c2cccnc12 | 3.62 µM | 54.6 µM | 4.18 µM | 51.4 µM | 3.57 µM | 30.8 µM | 2.63 | 8.83 | 4.09 µM | 97 µM | 4.43 µM | 28.9 µM | 2.22 µM | 6 µM | 3.21 µM | 19 µM | 2.14 µM | 5.11 µM | 2.29 µM | 6.79 µM |
| Cn1cc(C2=C(c3cn(CCCSC(=N)N)c4ccccc34)C(=O)NC2=O)c2ccccc21 | 4.73 µM | 12.9 µM | 3.03 µM | 12.3 µM | 2.36 µM | 7.39 µM | 0.971 | 3.93 | 3.23 µM | 9.88 µM | 2.11 µM | 9.52 µM | 3.22 µM | 6.73 µM | 3.84 µM | 8.34 µM | 3.56 µM | 7.77 µM | 7.68 µM | 23.4 µM |
| N#CC1=C(N)Oc2c(ccc3ccccc23)C1c1ccccc1Cl (centres undefined) | 0.476 µM | 26.7 µM | 0.455 µM | 15.4 µM | 0.374 µM | 17.3 µM | 0.269 | 17.2 | 1.13 µM | 20.4 µM | 0.571 µM | 14.6 µM | 11 µM | 38.2 µM | 0.617 µM | 22.9 µM | 0.188 µM | 3.39 µM | 0.167 µM | 20.9 µM |
